According to publication PMC5011342, “A high throughput drug screening assay to identify compounds that promote oligodendrocyte differentiation using acutely dissociated and purified oligodendrocyte precursor cells” (BMC Research Notes, 2016):
Structures can show the parent of a compound that is named as a salt. Where two headings read alike, the source gives them in different places.

Key:
expanded OPCs = assay: cells; conditions: for viability at 0.1 µM / viability at 1 µM / viability at 10 µM: Rattus norvegicus, 72 h
How it was run: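 Expanded OPCs seeded at 10,000 cells/well in differentiation media, then exposed to NCC library compounds at 10, 1 and 0.1 µM (quadruplicate, 0.1% DMSO) for three days. Viability read as alamarBlue fluorescence (560/590 nm) after 4 h at 37 °C; tunicamycin 5 ng/ml served as toxicity control.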

[1] = tested on: acutely dissociated and purified rat OPCs; assay: Acute OL differentiation assay (MBP expression/cell, immunofluorescent image quantification); format: cell-based
How it was run: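 Oligodendrocyte precursor cells were enriched from P6-P7 Sprague–Dawley rat brains by immunopanning (RAN-2 and GalC depletion, O4 selection), plated at 5000 cells/well in serum-free, mitogen-free differentiation media on PDL/laminin 96-well view plates, centrifuged at 200×g, and pre-incubated 1–2 h before test compounds were added in quadruplicate. On DIV4, cells were fixed, stained for MBP and DAPI, imaged automatically, and MBP expression per cell was quantified.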

[2] = alamarBlue viability of expanded OPCs, compound at 0.1 µM, relative to DMSO control
[3] = alamarBlue viability of expanded OPCs, compound at 1 µM, relative to DMSO control
[4] = alamarBlue viability of expanded OPCs, compound at 10 µM, relative to DMSO control
[5] = Rattus norvegicus, test compound at 0.4 uM, MBP expression relative to quetiapine, NCC library screen, sheet "All OLga data", read-out: 0.4 uM (% Quet)
[6] = read-out: 0.1 µM (% DMSO), alamarBlue viability, NCC library compound at 0.1 µM, sheet "All Tox data"
[7] = read-out: 1 µM (% DMSO), alamarBlue viability, NCC library compound at 1 µM, sheet "All Tox data"
[8] = read-out: 10 µM (% DMSO), alamarBlue viability, NCC library compound at 10 µM, sheet "All Tox data"
[9] = Rattus norvegicus, 2 uM test compound, relative to quetiapine, sheet "All OLga data", read-out: OL differentiation, 2 uM (% Quet)
[10] = Rattus norvegicus, 10 uM test compound, relative to quetiapine, sheet "All OLga data", read-out: OL differentiation, 10 uM (% Quet)
[11] = Rattus norvegicus, test compound at 2 uM, MBP expression relative to quetiapine, NCC library screen, sheet "All OLga data", read-out: 2 uM (% Quet)
[12] = read-out: 0.1 µM (% DMSO), alamarBlue viability of expanded OPCs, compound at 0.1 µM, sheet All Tox data
[13] = read-out: 1 µM (% DMSO), alamarBlue viability of expanded OPCs, compound at 1 µM, sheet All Tox data
[14] = read-out: 10 µM (% DMSO), alamarBlue viability of expanded OPCs, compound at 10 µM, sheet All Tox data
[15] = Rattus norvegicus, test compound at 2 uM, NCC library screen, sheet "All OLga data", relative to quetiapine, read-out: 2 uM (% Quet)
[16] = Rattus norvegicus, test compound at 10 uM, NCC library screen, sheet "All OLga data", relative to quetiapine, read-out: 10 uM (% Quet)
[17] = Rattus norvegicus, test compound at 10 uM, MBP expression relative to quetiapine, NCC library screen, sheet "All OLga data", read-out: 10 uM (% Quet)

SMILES: CCN(CC)CCOc1ccc(C(=C(Cl)c2ccccc2)c2ccccc2)cc1 [Clomiphene]
- 0.1 µM (% DMSO) (expanded OPCs; [2]): 172.3 % DMSO
- 1 µM (% DMSO) (expanded OPCs; [3]): 59.8 % DMSO
- 10 µM (% DMSO) (expanded OPCs; [4]): 8.1 % DMSO
- activation at 0.4 µM [1, 5]: 51.5%

SMILES: CN(C)CCCN1c2ccccc2CCc2ccc(Cl)cc21 [Clomipramine]
- 0.1 µM (% DMSO) (expanded OPCs; [2]): 76.2 % DMSO
- 1 µM (% DMSO) (expanded OPCs; [3]): 37.7 % DMSO
- 10 µM (% DMSO) (expanded OPCs; [4]): 8.7 % DMSO
- activation at 0.08 µM ([1]; Rattus norvegicus, test compound at 0.08 uM, MBP expression relative to quetiapine, NCC library screen, sheet "All OLga data", read-out: 0.08 uM (% Quet)): 18.5%
- activation at 0.4 µM [1, 5]: -59.9%

SMILES: Clc1cccc(Cl)c1N=C1NCCN1 [Clonidine hydrochloride]
- viability at 0.1 µM (expanded OPCs; [6]): 91.9%
- viability at 1 µM (expanded OPCs; [7]): 84.3%
- viability at 10 µM (expanded OPCs; [8]): 77.2%
- activation at 2 µM [1, 9]: -12.5%
- activation at 10 µM [1, 10]: -14.3%

SMILES: COC(=O)[C@H](c1ccccc1Cl)N1CCc2sccc2C1 [Clopidogrel]
- 0.1 µM (% DMSO) (expanded OPCs; [2]): 103.8 % DMSO
- 1 µM (% DMSO) (expanded OPCs; [3]): 94.8 % DMSO
- 10 µM (% DMSO) (expanded OPCs; [4]): 75.7 % DMSO
- activation at 0.4 µM [1, 5]: -4%
- activation at 2 µM [1, 11]: -15%

SMILES: Clc1ccccc1C(c1ccccc1)(c1ccccc1)n1ccnc1 [Clotrimazole]
- viability at 0.1 µM (expanded OPCs; [12]): 82.3%
- viability at 1 µM (expanded OPCs; [13]): 125%
- viability at 10 µM (expanded OPCs; [14]): 54.9%
- activation at 0.4 µM ([1]; Rattus norvegicus, 0.4 uM test compound, relative to quetiapine, sheet "All OLga data", read-out: OL differentiation, 0.4 uM (% Quet)): 43.9%
- activation at 2 µM [1, 9]: 171%

SMILES: CN1CCN(C2=Nc3cc(Cl)ccc3Nc3ccccc32)CC1 [Clozapine]
- 0.1 µM (% DMSO) (expanded OPCs; [2]): 78.7 % DMSO
- 1 µM (% DMSO) (expanded OPCs; [3]): 61.3 % DMSO
- 10 µM (% DMSO) (expanded OPCs; [4]): 24.6 % DMSO
- activation at 0.4 µM [1, 5]: -5.6%
- activation at 2 µM [1, 11]: -39.3%

SMILES: C[C@]12C[C@H](O)[C@H]3[C@@H](CCC4=CC(=O)CC[C@@]43C)[C@@H]1CC[C@@H]2C(=O)CO [Corticosterone]
- viability at 0.1 µM (expanded OPCs; [6]): 105%
- viability at 1 µM (expanded OPCs; [7]): 108%
- viability at 10 µM (expanded OPCs; [8]): 102%
- activation at 2 µM [1, 15]: 20.1%
- activation at 10 µM [1, 16]: 17.1%

SMILES: C[C@]12CCC(=O)C=C1CC[C@@H]1[C@@H]2[C@@H](O)C[C@@]2(C)[C@H]1CC[C@]2(O)C(=O)COC(=O)CCC(=O)O [Cortisol succinate]
- 0.1 µM (% DMSO) (expanded OPCs; alamarBlue viability, NCC library compound at 0.1 µM, sheet "All Tox data"): 123.4 % DMSO
- 1 µM (% DMSO) (expanded OPCs; alamarBlue viability, NCC library compound at 1 µM, sheet "All Tox data"): 127.0 % DMSO
- 10 µM (% DMSO) (expanded OPCs; alamarBlue viability, NCC library compound at 10 µM, sheet "All Tox data"): 132.7 % DMSO
- 2 uM (% Quet) ([1]; test compound at 2 uM, NCC library screen, sheet "All OLga data", relative to quetiapine): 3.6 % Quet
- 10 uM (% Quet) ([1]; test compound at 10 uM, NCC library screen, sheet "All OLga data", relative to quetiapine): 21.7 % Quet

SMILES: CC(=O)OCC(=O)[C@@]1(O)CC[C@H]2[C@@H]3CCC4=CC(=O)CC[C@]4(C)[C@H]3C(=O)C[C@@]21C [Cortisone acetate]
- 0.1 µM (% DMSO) (expanded OPCs; [2]): 89.9 % DMSO
- 1 µM (% DMSO) (expanded OPCs; [3]): 98.1 % DMSO
- 10 µM (% DMSO) (expanded OPCs; [4]): 86.2 % DMSO
- activation at 2 µM [1, 11]: 8.6%
- activation at 10 µM [1, 17]: 4.1%

SMILES: C[C@]12CCC(=O)C=C1CC[C@@H]1[C@@H]2CC[C@@]2(C)[C@H]1CC[C@]2(O)C(=O)CO [Cortodoxone]
- viability at 0.1 µM (expanded OPCs; [6]): 92.3%
- viability at 1 µM (expanded OPCs; [7]): 99.6%
- viability at 10 µM (expanded OPCs; [8]): 96.1%
- activation at 2 µM [1, 15]: 2.2%
- activation at 10 µM [1, 16]: 5.5%

SMILES: CN1C(=O)CC[C@H]1c1cccnc1 [Cotinine]
- viability at 0.1 µM (expanded OPCs; [12]): 88.9%
- viability at 1 µM (expanded OPCs; [13]): 92%
- viability at 10 µM (expanded OPCs; [14]): 98.7%
- activation at 2 µM [1, 9]: -8.8%
- activation at 10 µM [1, 10]: 21.8%

SMILES: O=C(O)c1cc(=O)c2c(OCC(O)COc3cccc4oc(C(=O)O)cc(=O)c34)cccc2o1 [Cromolyn Sodium]
- 0.1 µM (% DMSO) (expanded OPCs; [2]): 93.1 % DMSO
- 1 µM (% DMSO) (expanded OPCs; [3]): 94.0 % DMSO
- 10 µM (% DMSO) (expanded OPCs; [4]): 85.3 % DMSO
- activation at 2 µM [1, 11]: -3%
- activation at 10 µM [1, 17]: 3.7%

SMILES: O=P1(N(CCCl)CCCl)NCCCO1 (stereo not shown) [Cyclophosphamide]
- 0.1 µM (% DMSO) (expanded OPCs; rat): 90.6 % DMSO
- 1 µM (% DMSO) (expanded OPCs; rat): 100.6 % DMSO
- 10 µM (% DMSO) (expanded OPCs; rat): 97.0 % DMSO
- activation at 2 µM ([1]; Rattus norvegicus, read-out: 2 uM (% Quet)): 16.5%
- activation at 10 µM ([1]; Rattus norvegicus, read-out: 10 uM (% Quet)): 5.1%
